From PubChem BioAssay (NCI)
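Following 48 hours of exposure in 96-well plates, responses at five concentrations were used to interpolate endpoints linearly. Here, GI50 denotes the concentration required for 50% inhibition of growth. At the TGI there is no net growth.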

Tests used:
Assay in all cases: DTP human tumour cell line panel, 48 h
[1] = system: NCI-H23 lung
[2] = system: NCI-H460 lung
[3] = system: NCI-H522 lung
[4] = system: NCI/ADR-RES ovarian
[5] = system: OVCAR-3 ovarian
[6] = system: OVCAR-4 ovarian
[7] = system: OVCAR-5 ovarian
[8] = system: OVCAR-8 ovarian
[9] = system: PC-3 prostate
[10] = system: RXF 393 renal
[11] = system: SF-268 CNS
[12] = system: SF-295 CNS
[13] = system: SF-539 CNS
[14] = system: SK-MEL-2 melanoma
[15] = system: SK-MEL-28 melanoma
[16] = system: SK-MEL-5 melanoma
[17] = system: SK-OV-3 ovarian
[18] = system: SN12C renal
[19] = system: SNB-19 CNS
[20] = system: SNB-75 CNS
[21] = system: SR leukemia
[22] = system: SW-620 colon
[23] = system: T-47D breast
[24] = system: TK-10 renal
[25] = system: U251 CNS
[26] = system: UACC-257 melanoma
[27] = system: UACC-62 melanoma
[28] = system: UO-31 renal

With COc1ncc(-c2ccc3nccc(C#CCCCCC(=O)O)c3c2)cc1NS(=O)(=O)c1ccc(F)cc1F the GI50 [1] was 2.39 µM, the TGI [1] was over 100 µM and the GI50 [2] was 0.324 µM. It also gave a TGI [2] of over 100 µM, a GI50 [3] of 1.25 µM and a TGI [3] of over 100 µM. The GI50 [4] was 3.97 µM, the TGI [4] was over 100 µM and the GI50 [5] was 0.733 µM. The TGI [5] was 23.3 µM, the GI50 [6] was 3.62 µM and the TGI [6] was 83.8 µM. It also gave a GI50 [7] of 0.122 µM, a TGI [7] of over 100 µM and a GI50 [8] of 2.36 µM. It also gave a TGI [8] of over 100 µM, a GI50 [9] of 0.548 µM and a TGI [9] of over 100 µM. The GI50 [10] was 1.12 µM, the TGI [10] was 6.02 µM and the GI50 [11] was 1.17 µM. It also gave a TGI [11] of over 100 µM, a GI50 [12] of 0.735 µM and a TGI [12] of 6.45 µM. It also gave a GI50 [13] of 0.492 µM, a TGI [13] of 5.87 µM and a GI50 [14] of 1.6 µM. It also gave a TGI [14] of 15.2 µM, a GI50 [15] of 0.539 µM and a TGI [15] of over 100 µM. It also gave a GI50 [16] of 2.84 µM, a TGI [16] of 15 µM and a GI50 [17] of 0.0432 µM. It also gave a TGI [17] of 0.657 µM, a GI50 [18] of 2.55 µM and a TGI [18] of over 100 µM. The GI50 [19] was 2.05 µM, the TGI [19] was 84.9 µM and the GI50 [20] was 0.0199 µM. For the same compound, the TGI [20] was 0.98 µM, the GI50 [21] was 1.67 µM and the TGI [21] was 44.1 µM. It also gave a GI50 [22] of 1.91 µM, a TGI [22] of over 100 µM and a TGI [23] of 0.0849 µM. It also gave a GI50 [24] of 0.0846 µM, a TGI [24] of 9.67 µM and a GI50 [25] of 0.562 µM. For the same compound, the TGI [25] was 27.8 µM, the GI50 [26] was 0.355 µM and the TGI [26] was 5.92 µM. It also gave a GI50 [27] of 0.274 µM, a TGI [27] of 3.02 µM and a GI50 [28] of 0.207 µM. For the same compound, the TGI [28] was 14.1 µM.
